Results published in patent publication US7388111B2, “Non-nucleoside reverse transcriptase inhibitors” (Roche Palo Alto LLC, priority 2005, dated 2008).

Assays:
HIV-1 RT = HIV-1 RT (Human immunodeficiency virus type 1 group M subtype B, UniProt P03366); assay: HIV Reverse Transcriptase Assay: Inhibitor IC50 Determination; assay type: biochemical; details: purified recombinant enzyme, poly(rA)/oligo(dT)16 template-primer, 37° C. 30 min
Protocol: HIV Reverse Transcriptase Assay: Inhibitor IC50 Determination
HIV-1 RT assay was carried out in 96-well Millipore MultiScreen MADVNOB50 plates using purified recombinant enzyme and a poly(rA)/oligo(dT)16 template-primer in a total volume of 50 μL. The assay constituents were 50 mM Tris/HCl, 50 mM NaCl, 1 mM EDTA, 6 mM MgCl2, 5 μM dTTP, 0.15 μCi [^3H] dTTP, 5 μg/ml poly (rA) pre annealed to 2.5 μg/ml oligo (dT)16 and a range of inhibitor concentrations in a final concentration of 10% DMSO. Reactions were initiated by adding 4 nM HIV-1 RT and after incubation at 37° C. for 30 min, they were stopped by the addition of 50 μl ice cold 20% TCA and allowed to precipitate at 4° C. for 30 min. The precipitates were collected by applying vacuum to the plate and sequentially washing with 3×200 μl of 10% TCA and 2×200 μl 70% ethanol. Finally, the plates were dried and radioactivity counted in a Packard TopCounter after the addition of 25 μl scintillation fluid per well. IC50's were calculated by plotting % inhibition versus log10 inhibitor concentrations.

HIV-1 = assay: Anti-Viral Assay (method of Pauwels et al.); assay type: cell-based; details: Human immunodeficiency virus 1, read-out: Anti-Viral Assay
Protocol: Anti-viral assays were carried out by the method described by R. E. Pauwels et al. J. Virol. Methods 1988 20(4):309-322.

For `Cc1cc(C#N)ccc1Oc1ccc(CC(=O)Nc2ccc(S(N)(=O)=O)cc2Br)c(C)c1C` [Compound I-24, N-(2-Bromo-4-sulfamoyl-phenyl)-2-[4-(4-cyano-2-methyl-phenoxy)-2,3-dimethyl-phenyl]-acetamide], the IC50 (HIV-1 RT) was 202 nM and the EC50 (HIV-1) was 2.6 nM.
